Results: PubChem BioAssay (NCI)
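All cell lines were grown in 96-well plates and treated with compound for 48 hours. GI50 marks 50% less growth. TGI: total growth inhibition.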

What was measured:
Experiment in all cases: NCI-60 cell line screen, 48 h
786-0 renal = test system: 786-0 renal
A498 renal = test system: A498 renal
A549 NSCLC = test system: A549 NSCLC
ACHN renal = test system: ACHN renal
BT-549 breast = test system: BT-549 breast
CAKI-1 renal = test system: CAKI-1 renal
CCRF-CEM leukemia = test system: CCRF-CEM leukemia
COLO 205 colon = test system: COLO 205 colon
DU-145 prostate = test system: DU-145 prostate
EKVX NSCLC = test system: EKVX NSCLC
HCC-2998 colon = test system: HCC-2998 colon
HCT-116 colon = test system: HCT-116 colon
HCT-15 colon = test system: HCT-15 colon
HL-60(TB) leukemia = test system: HL-60(TB) leukemia
HOP-92 NSCLC = test system: HOP-92 NSCLC
HS 578T breast = test system: HS 578T breast
HT29 colon = test system: HT29 colon
IGROV1 ovarian = test system: IGROV1 ovarian
K-562 leukemia = test system: K-562 leukemia
KM12 colon = test system: KM12 colon
LOX IMVI melanoma = test system: LOX IMVI melanoma
M14 melanoma = test system: M14 melanoma
MALME-3M melanoma = test system: MALME-3M melanoma
MCF7 breast = test system: MCF7 breast
MDA-MB-231 breast = test system: MDA-MB-231 breast
MDA-MB-435 = test system: MDA-MB-435
MOLT-4 leukemia = test system: MOLT-4 leukemia
NCI-H226 lung = test system: NCI-H226 lung
NCI-H23 lung = test system: NCI-H23 lung
NCI-H460 lung = test system: NCI-H460 lung
NCI-H522 lung = test system: NCI-H522 lung
NCI/ADR-RES ovarian = test system: NCI/ADR-RES ovarian
OVCAR-3 ovarian = test system: OVCAR-3 ovarian
OVCAR-4 ovarian = test system: OVCAR-4 ovarian
OVCAR-5 ovarian = test system: OVCAR-5 ovarian
OVCAR-8 ovarian = test system: OVCAR-8 ovarian
PC-3 prostate = test system: PC-3 prostate
RPMI-8226 leukemia = test system: RPMI-8226 leukemia
RXF 393 renal = test system: RXF 393 renal
SF-268 CNS = test system: SF-268 CNS
SF-295 CNS = test system: SF-295 CNS
SF-539 CNS = test system: SF-539 CNS
SK-MEL-2 melanoma = test system: SK-MEL-2 melanoma
SK-MEL-28 melanoma = test system: SK-MEL-28 melanoma
SK-MEL-5 melanoma = test system: SK-MEL-5 melanoma
SK-OV-3 ovarian = test system: SK-OV-3 ovarian
SN12C renal = test system: SN12C renal
SNB-19 CNS = test system: SNB-19 CNS
SNB-75 CNS = test system: SNB-75 CNS
SR leukemia = test system: SR leukemia
SW-620 colon = test system: SW-620 colon
T-47D breast = test system: T-47D breast
TK-10 renal = test system: TK-10 renal
U251 CNS = test system: U251 CNS
UACC-257 melanoma = test system: UACC-257 melanoma
UACC-62 melanoma = test system: UACC-62 melanoma
UO-31 renal = test system: UO-31 renal

## COc1cc(C(=O)N2CCN(c3ccccn3)CC2)c(N)cc1OCc1ccccc1
786-0 renal
  GI50: > 100 µM
  TGI: > 100 µM
A498 renal
  GI50: 91.2 µM
  TGI: > 100 µM
A549 NSCLC
  GI50: > 100 µM
  TGI: > 100 µM
ACHN renal
  GI50: > 100 µM
  TGI: > 100 µM
BT-549 breast
  GI50: 66.4 µM
  TGI: > 100 µM
CAKI-1 renal
  GI50: > 100 µM
  TGI: > 100 µM
CCRF-CEM leukemia
  GI50: 21 µM
  TGI: 39.5 µM
COLO 205 colon
  GI50: 96.8 µM
  TGI: > 100 µM
DU-145 prostate
  GI50: > 100 µM
  TGI: > 100 µM
EKVX NSCLC
  GI50: > 100 µM
  TGI: > 100 µM
HCC-2998 colon
  GI50: > 100 µM
  TGI: > 100 µM
HCT-116 colon
  GI50: > 100 µM
  TGI: > 100 µM
HCT-15 colon
  GI50: > 100 µM
  TGI: > 100 µM
HL-60(TB) leukemia
  GI50: 82.4 µM
  TGI: > 100 µM
HOP-92 NSCLC
  GI50: > 100 µM
  TGI: > 100 µM
HS 578T breast
  GI50: > 100 µM
  TGI: > 100 µM
HT29 colon
  GI50: 78.2 µM
  TGI: > 100 µM
IGROV1 ovarian
  GI50: > 100 µM
  TGI: > 100 µM
K-562 leukemia
  GI50: 20 µM
  TGI: 74.1 µM
KM12 colon
  GI50: > 100 µM
  TGI: > 100 µM
LOX IMVI melanoma
  GI50: > 100 µM
  TGI: > 100 µM
M14 melanoma
  GI50: > 100 µM
  TGI: > 100 µM
MALME-3M melanoma
  GI50: > 100 µM
  TGI: > 100 µM
MCF7 breast
  GI50: 58.5 µM
  TGI: > 100 µM
MDA-MB-231 breast
  GI50: > 100 µM
  TGI: > 100 µM
MDA-MB-435
  GI50: > 100 µM
  TGI: > 100 µM
MOLT-4 leukemia
  GI50: 34.1 µM
  TGI: > 100 µM
NCI-H226 lung
  GI50: > 100 µM
  TGI: > 100 µM
NCI-H23 lung
  GI50: > 100 µM
  TGI: > 100 µM
NCI-H460 lung
  GI50: > 100 µM
  TGI: > 100 µM
NCI-H522 lung
  GI50: > 100 µM
  TGI: > 100 µM
NCI/ADR-RES ovarian
  GI50: 74.6 µM
  TGI: > 100 µM
OVCAR-3 ovarian
  GI50: 55.8 µM
  TGI: > 100 µM
OVCAR-4 ovarian
  GI50: 69.9 µM
  TGI: > 100 µM
OVCAR-5 ovarian
  GI50: > 100 µM
  TGI: > 100 µM
OVCAR-8 ovarian
  GI50: > 100 µM
  TGI: > 100 µM
PC-3 prostate
  GI50: > 100 µM
  TGI: > 100 µM
RPMI-8226 leukemia
  GI50: 56.4 µM
  TGI: > 100 µM
RXF 393 renal
  GI50: > 100 µM
  TGI: > 100 µM
SF-268 CNS
  GI50: > 100 µM
  TGI: > 100 µM
SF-295 CNS
  GI50: > 100 µM
  TGI: > 100 µM
SF-539 CNS
  GI50: > 100 µM
  TGI: > 100 µM
SK-MEL-2 melanoma
  GI50: > 100 µM
  TGI: > 100 µM
SK-MEL-28 melanoma
  GI50: > 100 µM
  TGI: > 100 µM
SK-MEL-5 melanoma
  GI50: 30.1 µM
  TGI: > 100 µM
SK-OV-3 ovarian
  GI50: > 100 µM
  TGI: > 100 µM
SN12C renal
  GI50: 46.8 µM
  TGI: > 100 µM
SNB-19 CNS
  GI50: > 100 µM
  TGI: > 100 µM
SNB-75 CNS
  GI50: 39.9 µM
  TGI: > 100 µM
SR leukemia
  GI50: 77.7 µM
  TGI: > 100 µM
SW-620 colon
  GI50: > 100 µM
  TGI: > 100 µM
T-47D breast
  GI50: 45.2 µM
  TGI: > 100 µM
TK-10 renal
  GI50: > 100 µM
  TGI: > 100 µM
U251 CNS
  GI50: > 100 µM
  TGI: > 100 µM
UACC-257 melanoma
  GI50: > 100 µM
  TGI: > 100 µM
UACC-62 melanoma
  GI50: 81 µM
  TGI: > 100 µM
UO-31 renal
  GI50: 68.3 µM
  TGI: > 100 µM
